Each compound was assayed against T1, human Werner helicase (WRN-BV08, Uniprot Q14191, amino acids 517-1235 with L1074F point mutation) (Homo sapiens, UniProt Q14191, L1074F) (assay: WRN (BV08) ADP-Glo Assay). Conditions: 0.15 nM WRN, 5 μM ATP, 0.1 nM DNA duplex, 15 min preincubation, 60 min at 25° C., pH 7.5, 1% DMSO; read-out: ADP-Glo_hWRN_IC50.
T1 construct: Uniprot Q14191, amino acids 517-1235 with L1074F point mutation; TEV-cleavable 8×His (C, cleaved yes); made in house; host or cells: Sf9 insect cells (baculovirus)
Format: biochemical
Excerpt: Example 2: WRN (BV08) ADP-Glo Assay Protocol
Bovine skin gelatin (BSG), dimethyl sulfoxide (DMSO), Pluronic F-127 and Tris(2-carboxyethyl)phosphine hydrochloride solution (TCEP) were purchased from Sigma-Aldrich at the highest level of purity possible. Bicine buffer solution was purchased from Alfa Aesar and compound NSC-617145 was purchased from Tocris. DNA duplex was synthesized at BGI (Shenzhen, China) and was composed of strand 1 with the sequence 5′-[…]-3′ (SEQ ID NO.: 1) and strand 2 with the sequence 5′-[…]-3′ (SEQ ID NO.: 2). DNA strands were annealed by heating to 95° C. for 5 minutes followed by slow cooling to room temperature. Compounds in 100% DMSO (0.1 μl) were spotted into a 384-well white polystyrene Optiplate-384 (Perkin Elmer) assay plate using a LabCyte Echo 550 (Agilent). DMSO (0.1 μl) was added to columns 12, rows A-H and column 24, rows I-P for the maximum signal control. Compound NSC-617145 (0.1 μl) was added to columns 12, rows I-P and 24, rows A-H for the minimum signal control (100% inhibition). Compounds/DMSO were preincubated for 15 minutes at 25° C. with 5 uL 2×WRN (BV08), prepared as described below, in assay buffer containing 20 mM Bicine (pH=7.5), 1 mM MgCl2, 10 mM KCl, 0.1% Pluronic F-127, 0.005% BSG, 1 mM TCEP. The reaction was initiated by the addition of 5 μl 2× substrate mixture in assay buffer and incubated for 60 minutes at 25° C. The final concentrations of the assay components were 0.15 nM WRN, 5 μM ATP, and 0.1 nM DNA duplex. The final DMSO concentration was 1% and the reference compound concentration (NSC-617145) used for the minimal signal control was 20 μM. The reaction was stopped by the addition of the ADP-Glo Kit components (Promega) as directed and the relative luminescence units (RLU) were read on an Envision 2104 (Perkin Elmer).
% Inhibition Calculation:
Where RLU=relative luminescence units, sample=signal in sample well, and MIN and MAX are the respective minimum and maximum signal controls.
Four-Parameter IC50 Fit Equation:
Where top and bottom are normally allowed to float but may be fixed at 100 or 0 respectively in a 3-parameter fit. Y is the % inhibition and X is the compound concentration.
Molecular Biology and virus production. The DNA encoding human Werner helicase (Uniprot Q14191, amino acids 517-1235 with L1074F point mutation) was generated with codon-optimization for E. coli expression and subcloned into the pFastBac vector with a TEV cleavable 8×His tag (WRN-BV08). The baculovirus from the expression plasmid WRN-BV08 was generated from transfection and amplification following the manufacturer's instructions.
Sf9 cells grown in SF900II media were infected with 1:200 WRN-BV08 P2 virus and incubated for protein expression for 72 h at 27° C. The WRN protein was purified using the following protocol. The cell pellets were thawed and resuspended in buffer A (50 mM Tris, pH 7.5, 500 mM NaCl, 1 mM TCEP, 10% Glycerol) supplemented with 0.5% CHAPS, 1 mM [COMPOUND LEFT OUT], 1 μg/mL Leupeptin, 1 μg/mL Pepstatin, and the Pierce Universal Nuclease and cocktail tablet. Cleared lysates were loaded onto a Ni Sepharose™ excel column and washed with buffer A and bound protein was eluted with buffer A supplemented with 300 mM imidazole. The eluted protein was dialyzed against buffer A and digested by His-tagged TEV (1:5 ratio) overnight at 4° C. ZnCl2 was added into the sample at final 15 μM before loading onto a second Ni Sepharose™ excel column. Untagged WRN protein was eluted from the column with buffer A supplemented with 20 mM imidazole, dialyzed overnight into buffer B (50 mM Tris, pH 7.5, 1 mM TCEP, 10% Glycerol) supplemented with 150 mM NaCl and loaded onto a Heparin column. Proteins were eluted with a step gradient of buffer B supplemented with 150 mM, 200 mM, 300 mM and 500 mM NaCl. […]

T1 sequence (Q14191 with tags, fused parts or gaps L1074F limits assumed): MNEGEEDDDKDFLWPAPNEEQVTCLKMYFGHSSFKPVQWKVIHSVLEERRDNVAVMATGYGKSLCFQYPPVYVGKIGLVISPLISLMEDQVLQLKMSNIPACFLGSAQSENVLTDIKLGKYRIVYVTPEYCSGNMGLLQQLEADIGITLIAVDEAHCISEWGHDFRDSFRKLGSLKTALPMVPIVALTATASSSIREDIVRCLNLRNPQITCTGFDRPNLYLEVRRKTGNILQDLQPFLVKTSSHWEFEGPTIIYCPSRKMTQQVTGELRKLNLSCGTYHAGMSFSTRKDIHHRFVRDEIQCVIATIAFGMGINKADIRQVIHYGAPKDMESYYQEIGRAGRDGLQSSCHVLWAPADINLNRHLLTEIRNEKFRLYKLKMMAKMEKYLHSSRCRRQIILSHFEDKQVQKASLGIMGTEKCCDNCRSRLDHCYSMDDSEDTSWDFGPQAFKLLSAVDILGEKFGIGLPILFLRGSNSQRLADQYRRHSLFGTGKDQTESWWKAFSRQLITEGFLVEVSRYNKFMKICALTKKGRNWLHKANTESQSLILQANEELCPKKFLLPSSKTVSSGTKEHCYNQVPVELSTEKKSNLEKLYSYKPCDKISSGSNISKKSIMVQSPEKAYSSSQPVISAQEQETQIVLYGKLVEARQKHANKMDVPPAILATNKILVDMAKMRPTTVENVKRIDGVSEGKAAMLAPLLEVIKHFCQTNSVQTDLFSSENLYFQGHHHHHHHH

Row | Compound | IC50 [µM]
1 | O=C(Cc1ccc(C2CC2)cc1)N(Cc1ccncc1)C1C=CS(=O)(=O)C1 (stereo not drawn) [I-287, 2-(4-cyclopropylphenyl)-N-(1,1-dioxo-2,3-dihydro-1lambda6-thiophen-3-yl)-N-[(pyridin-4-yl)methyl]acetamide] | 5 to 10
2 | O=C(CCc1cc2ccccc2s1)N(Cc1ccncc1)C1C=CS(=O)(=O)C1 (stereo not drawn) [I-495, 3-(1-benzothiophen-2-yl)-N-(1,1-dioxo-2,3-dihydro-1lambda6-thiophen-3-yl)-N-[(pyridin-4-yl)methyl]propanamide] | > 50
3 | O=C(Cc1ccc(N2CCCC2)cc1)N(Cc1ccncc1)C1C=CS(=O)(=O)C1 (stereo not drawn) [I-464, N-(1,1-dioxo-2,3-dihydro-1lambda6-thiophen-3-yl)-N-[(pyridin-4-yl)methyl]-2-[4-(pyrrolidin-1-yl)phenyl]acetamide] | > 50
4 | O=C(Cc1ccc(-n2cccc2)cc1)N(Cc1ccc(C(F)(F)F)nc1)C1C=CS(=O)(=O)C1 (stereo not drawn) [I-295, N-(1,1-dioxo-2,3-dihydro-1lambda6-thiophen-3-yl)-2-[4-(1H-pyrrol-1-yl)phenyl]-N-{[6-(trifluoromethyl)pyridin-3-yl]methyl}acetamide] | 10 to 50
5 | O=C(Cc1ccc(-n2cccc2)cc1)N(Cc1ccc2nccn2c1)C1C=CS(=O)(=O)C1 (stereo not drawn) [I-361, N-(1,1-dioxo-2,3-dihydro-1lambda6-thiophen-3-yl)-N-({imidazo[1,2-a]pyridin-6-yl}methyl)-2-[4-(1H-pyrrol-1-yl)phenyl]acetamide] | 10 to 50
6 | O=C(Cc1ccc(-n2cccc2)cc1)N(Cc1ccccc1CO)C1C=CS(=O)(=O)C1 (stereo not drawn) [I-360, N-(1,1-dioxo-2,3-dihydro-1lambda6-thiophen-3-yl)-N-{[2-(hydroxymethyl)phenyl]methyl}-2-[4-(1H-pyrrol-1-yl)phenyl]acetamide] | 10 to 50
7 | COC(C(=O)N(Cc1ccncc1)C1C=CS(=O)(=O)C1)c1ccc(-c2ccc(F)cc2)cc1 (single isomer, unassigned) [I-575, (2R*)-N-[(3R**)-1,1-dioxo-2,3-dihydro-1lambda6-thiophen-3-yl]-2-{4′-fluoro-[1,1′-biphenyl]-4-yl}-2-methoxy-N-[(pyridin-4-yl)methyl]acetamide] | > 50
8 | COc1cc(CN(C(=O)Cc2c(F)cc(-c3ccc(F)cc3)cc2F)C2C=CS(=O)(=O)C2)ccn1 (stereo not drawn) [I-168, N-(1,1-dioxo-2,3-dihydro-1lambda6-thiophen-3-yl)-N-[(2-methoxypyridin-4-yl)methyl]-2-{3,4′,5-trifluoro-[1,1′-biphenyl]-4-yl}acetamide] | 0.5 to 5
9 | Cn1cc(CCC(=O)N(Cc2ccncc2)C2C=CS(=O)(=O)C2)c2ccc(Br)cc21 (stereo not drawn) [I-565, 3-(6-bromo-1-methyl-1H-indol-3-yl)-N-(1,1-dioxo-2,3-dihydro-1lambda6-thiophen-3-yl)-N-[(pyridin-4-yl)methyl]propanamide] | > 50
10 | COC(C(=O)N(Cc1ccnc(C(C)(C)O)c1)C1C=CS(=O)(=O)C1)c1ccc(S(F)(F)(F)(F)F)cc1 (single isomer, unassigned) [I-665, (2R*)-N-[(3R**)-1,1-dioxo-2,3-dihydro-1lambda6-thiophen-3-yl]-N-{[2-(2-hydroxypropan-2-yl)pyridin-4-yl]methyl}-2-methoxy-2-[4-(pentafluoro-lambda6-sulfanyl)phenyl]acetamide] | 10 to 50
11 | COCC(C(=O)N(Cc1ccnc(C(C)(C)O)c1)C1C=CS(=O)(=O)C1)c1ccc(-c2ccc(F)c(F)c2)cc1F (stereo not drawn) [I-195, N-(1,1-dioxo-2,3-dihydro-1lambda6-thiophen-3-yl)-N-{[2-(2-hydroxypropan-2-yl)pyridin-4-yl]methyl}-3-methoxy-2-{3,3′,4′-trifluoro-[1,1′-biphenyl]-4-yl}propanamide] | 0.5 to 5

Next, values leading:

Row | IC50 [µM] | Compound
12 | 0.5 to 5 | COc1cc(CN(C(=O)C(c2ccc(-c3ccc(F)c(F)c3)cc2F)n2cc(C(F)F)cn2)[C@@H]2C=CS(=O)(=O)C2)ccn1 (stereo partly drawn) [I-705, 2-[4-(difluoromethyl)-1H-pyrazol-1-yl]-N-[(3R)-1,1-dioxo-2,3-dihydro-1lambda6-thiophen-3-yl]-N-[(2-methoxypyridin-4-yl)methyl]-2-{3,3′,4′-trifluoro-[1,1′-biphenyl]-4-yl}acetamide]
13 | 0.5 to 5 | O=C(Cc1ccc(-n2cccc2)cc1)N(Cc1ccc2ccccc2n1)C1C=CS(=O)(=O)C1 (stereo not drawn) [I-210, N-(1,1-dioxo-2,3-dihydro-1lambda6-thiophen-3-yl)-2-[4-(1H-pyrrol-1-yl)phenyl]-N-[(quinolin-2-yl)methyl]acetamide]
14 | < 0.5 | CC(C)(O)c1cc(CN(C(=O)C2Cc3cc(S(F)(F)(F)(F)F)ccc3O2)[C@@H]2C=CS(=O)(=O)C2)ccn1 (single isomer, unassigned) [I-730]
15 | 0.5 to 5 | O=C(Cc1ccc(-n2cccc2)cc1)N(Cc1ccnc(Cl)c1)C1C=CS(=O)(=O)C1 (stereo not drawn) [I-160, N-[(2-chloropyridin-4-yl)methyl]-N-(1,1-dioxo-2,3-dihydro-1lambda6-thiophen-3-yl)-2-[4-(1H-pyrrol-1-yl)phenyl]acetamide]
16 | 0.5 to 5 | CN(C)C(=O)C(C(=O)N(Cc1ccnc(C(C)(C)O)c1)C1C=CS(=O)(=O)C1)c1ccc(S(F)(F)(F)(F)F)cc1 (stereo not drawn) [I-192, N′-(1,1-dioxo-2,3-dihydro-1lambda6-thiophen-3-yl)-N′-{[2-(2-hydroxypropan-2-yl)pyridin-4-yl]methyl}-N,N-dimethyl-2-[4-(pentafluoro-lambda6-sulfanyl)phenyl]propanediamide]
17 | < 0.5 | O=C(C(c1ccc(-c2ccc(F)c(F)c2)cc1F)n1cccn1)N(Cc1ccncc1)C1C=CS(=O)(=O)C1 (stereo not drawn) [I-48, N-(1,1-dioxido-2,3-dihydrothiophen-3-yl)-2-(1H-pyrazol-1-yl)-N-(pyridin-4-ylmethyl)-2-(3,3′,4′-trifluoro-[1,1′-biphenyl]-4-yl)acetamide]
18 | < 0.5 | CN(C)C(=O)C(C(=O)N(Cc1ccncc1)C1C=CS(=O)(=O)C1)c1ccc(-c2ccc(F)cc2)cc1 (single isomer, unassigned) [I-27, (2R**)-N′-[(3R*)-1,1-dioxo-2,3-dihydro-1lambda6-thiophen-3-yl]-2-{4′-fluoro-[1,1′-biphenyl]-4-yl}-N,N-dimethyl-N′-[(pyridin-4-yl)methyl]propanediamide]
19 | 0.5 to 5 | COc1cc(CN(C(=O)C(OC)c2ccc(-c3ccc(F)cc3)cc2)C2C=CS(=O)(=O)C2)ccn1 (stereo not drawn) [I-86, N-(1,1-dioxo-2,3-dihydro-1lambda6-thiophen-3-yl)-2-{4′-fluoro-[1,1′-biphenyl]-4-yl}-2-methoxy-N-[(2-methoxypyridin-4-yl)methyl]acetamide]
20 | 0.5 to 5 | O=C(Cc1ccc(-n2cccc2)cc1)N(Cc1nc(C2CC2)cs1)C1C=CS(=O)(=O)C1 (stereo not drawn) [I-111, N-[(4-cyclopropyl-1,3-thiazol-2-yl)methyl]-N-(1,1-dioxo-2,3-dihydro-1lambda6-thiophen-3-yl)-2-[4-(1H-pyrrol-1-yl)phenyl]acetamide]
21 | < 0.5 | CC(C)(O)c1cc(CN(C(=O)C(OCC2CC2)c2ccc(-c3ccc(F)c(F)c3)cc2F)[C@@H]2C=CS(=O)(=O)C2)ccn1 (single isomer, unassigned) [I-815]

Reference: patent publication US20260297070A1, “CYCLIC [COMPOUND LEFT OUT] WRN INHIBITORS” (Nimbus Wadjet, Inc., priority 2023, published 2026)
